Results from ChEMBL document CHEMBL1201862, “PubChem BioAssay data set” (2004).
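In this assay, cells in 96-well plates receive the compound at five concentrations for 48 hours. Endpoints are linearly interpolated between the surrounding concentrations. Abbreviation: GI50, concentration required for 50% inhibition of growth.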 The source made the active and inactive calls. No stated cut-off is given here; in the data, active = GI50 up to about 1.1 µM and inactive = higher.

Key:
Assay in all cases: DTP human tumour cell line panel, 48 h
SF-295 = tested on: SF-295
UACC-62 = tested on: UACC-62
OVCAR-8 = tested on: OVCAR-8
HL-60 = tested on: HL-60
SF-268 = tested on: SF-268
SNB-75 = tested on: SNB-75
NCI-H522 = tested on: NCI-H522
U-251 = tested on: U-251
NCI-H23 = tested on: NCI-H23
SK-MEL-28 = tested on: SK-MEL-28
OVCAR-4 = tested on: OVCAR-4
SK-MEL-2 = tested on: SK-MEL-2
ACHN = tested on: ACHN
IGROV-1 = tested on: IGROV-1
SNB-19 = tested on: SNB-19

Row | SMILES | GI50 (SF-295) | GI50 (UACC-62) | GI50 (OVCAR-8) | GI50 (HL-60) | GI50 (SF-268) | GI50 (SNB-75) | GI50 (NCI-H522) | GI50 (U-251) | GI50 (NCI-H23) | GI50 (SK-MEL-28) | GI50 (OVCAR-4) | GI50 (SK-MEL-2) | GI50 (ACHN) | GI50 (IGROV-1) | GI50 (SNB-19)
1 | O=C(O/N=C1\CCCC\C1=C/c1ccccc1)c1ccc([N+](=O)[O-])cc1 | 69.8 µM (inactive) | > 100 µM (inactive) | > 100 µM (inactive) | 76.9 µM (inactive) | > 100 µM (inactive) | 41.7 µM (inactive) | 69.8 µM (inactive) | 86.3 µM (inactive) | 87.5 µM (inactive) | > 100 µM (inactive) | 33.1 µM (inactive) | > 100 µM (inactive) | 64.4 µM (inactive) | – | –
2 | N#CNC(=N)NC(=O)/C=C/C=C/c1ccc(Cl)cc1 | > 100 µM (inactive) | > 100 µM (inactive) | 82.2 µM (inactive) | > 100 µM (inactive) | 52.7 µM (inactive) | 24.2 µM (inactive) | > 100 µM (inactive) | > 100 µM (inactive) | > 100 µM (inactive) | > 100 µM (inactive) | 57.5 µM (inactive) | > 100 µM (inactive) | > 100 µM (inactive) | > 100 µM (inactive) | –
3 | CCCCCCCCCCCCCCC(O)C1CCC(C(O)CCC(O)CCCCCC(O)CC2=CC(C)OC2=O)O1 (stereo not drawn) | 1.26 µM (inactive) | 2.33 µM (inactive) | 2.07 µM (inactive) | 0.0117 µM (active) | 0.832 µM (active) | 2.22 µM (inactive) | 1.14 µM (inactive) | 2.74 µM (inactive) | < 0.01 µM (active) | 1.93 µM (inactive) | 0.013 µM (active) | 2.54 µM (inactive) | – | 1.44 µM (inactive) | 1.81 µM (inactive)
4 | CC(C)(CN1CCCCC1)C(=O)/C=C/c1ccccc1 | 15.5 µM (inactive) | 18.9 µM (inactive) | 15.8 µM (inactive) | – | 13.3 µM (inactive) | 11.6 µM (inactive) | 13.2 µM (inactive) | 21.5 µM (inactive) | 15.1 µM (inactive) | 15.6 µM (inactive) | 26 µM (inactive) | 14.4 µM (inactive) | 25.8 µM (inactive) | 22.8 µM (inactive) | 16.4 µM (inactive)
5 | COc1ccc(-c2cc(-c3ccco3)c(C#N)c(=O)[nH]2)cc1 | 65 µM (inactive) | > 100 µM (inactive) | 36.8 µM (inactive) | > 100 µM (inactive) | 36.7 µM (inactive) | 18 µM (inactive) | 20.3 µM (inactive) | 15.5 µM (inactive) | 86.7 µM (inactive) | > 100 µM (inactive) | 29.2 µM (inactive) | – | 87.5 µM (inactive) | > 100 µM (inactive) | > 100 µM (inactive)
6 | O=C(C/C(CCC(=O)N(Cc1ccccc1)Cc1ccccc1)=N/Nc1ccc([N+](=O)[O-])cc1[N+](=O)[O-])c1ccccc1 | > 100 µM (inactive) | 25.9 µM (inactive) | > 100 µM (inactive) | 41.2 µM (inactive) | 38.8 µM (inactive) | > 100 µM (inactive) | > 100 µM (inactive) | > 100 µM (inactive) | > 100 µM (inactive) | > 100 µM (inactive) | 60.8 µM (inactive) | > 100 µM (inactive) | – | > 100 µM (inactive) | > 100 µM (inactive)
7 | OCC1=CC(NC2CC(CO)C(O)C(O)C2O)C(O)C(O)C1O (stereo not drawn) | > 100 µM (inactive) | > 100 µM (inactive) | > 100 µM (inactive) | – | – | > 100 µM (inactive) | > 100 µM (inactive) | > 100 µM (inactive) | > 100 µM (inactive) | > 100 µM (inactive) | – | – | > 100 µM (inactive) | > 100 µM (inactive) | > 100 µM (inactive)
8 | CC(=O)OCC1OC(n2cnc3c(I)nc(I)nc32)C(OC(C)=O)C1OC(C)=O (stereo not drawn) | 20.5 µM (inactive) | 13.6 µM (inactive) | 10.3 µM (inactive) | 2.47 µM (inactive) | 13.4 µM (inactive) | 15.1 µM (inactive) | 1.91 µM (inactive) | 10.4 µM (inactive) | 4.66 µM (inactive) | 14.9 µM (inactive) | 4.71 µM (inactive) | 17.1 µM (inactive) | 10 µM (inactive) | 6.35 µM (inactive) | 12.5 µM (inactive)
9 | COC1=CC(=O)[C@]2(C)[C@H](C1=O)C(C)[C@H]2c1ccccc1 (stereo partly drawn) | > 100 µM (inactive) | > 100 µM (inactive) | > 100 µM (inactive) | > 100 µM (inactive) | > 100 µM (inactive) | > 100 µM (inactive) | > 100 µM (inactive) | > 100 µM (inactive) | > 100 µM (inactive) | > 100 µM (inactive) | > 100 µM (inactive) | > 100 µM (inactive) | > 100 µM (inactive) | > 100 µM (inactive) | > 100 µM (inactive)
10 | O=C(C#Cc1cnc(O)nc1O)c1ccccc1Cl | > 100 µM (inactive) | 16.4 µM (inactive) | 15.2 µM (inactive) | 13.3 µM (inactive) | 20.7 µM (inactive) | 19.9 µM (inactive) | – | 17.9 µM (inactive) | 17.1 µM (inactive) | 17.9 µM (inactive) | 17.4 µM (inactive) | 16.2 µM (inactive) | 17.3 µM (inactive) | 19.5 µM (inactive) | 52.6 µM (inactive)
